In one experiment the test system is A549 cells. The experiment is described as follows: Proliferation Assay (A549 cell viability, Cell Titer Fluor). The class given is cell-based. As to conditions: Homo sapiens, 72 hours. As to the method:
A549 cells were routinely maintained in RPMI 1640 media (Gibco catalog number 11875-093) supplemented with 10% dialyzed fetal bovine serum using a humidified incubator (37° C., 5% CO2 and ambient O2). In preparation for the viability assay, cells were inoculated into 384-well black CulturPlates (Perkin Elmer) at a density of 1000 cells/well in a volume of 40 uL. Following a 24-hour incubation at 37° C., 5% CO2 and ambient O2, cells were treated with compound (10 uL) in a final DMSO concentration of 0.5% (v/v). The microplates were then incubated for 72 hours (37° C., 5% CO2 and ambient O2). Cell Titer Fluor (Promega) was subsequently added (10 uL of 6× reagent) and mixed for 15 minutes at room temperature. The plates were then incubated for 30 minutes (37° C., 5% CO2 and ambient O2) and fluorescence was subsequently read on the Perkin Elmer Envision plate reader. EC50 values were calculated using a four-parameter logistic curve fit.

The target of experiment [1] is T1, purified recombinant human GAC (GLS1) (Homo sapiens, UniProt O94925).
T1 sequence (O94925 55-598 isoform O94925-3 limits assumed): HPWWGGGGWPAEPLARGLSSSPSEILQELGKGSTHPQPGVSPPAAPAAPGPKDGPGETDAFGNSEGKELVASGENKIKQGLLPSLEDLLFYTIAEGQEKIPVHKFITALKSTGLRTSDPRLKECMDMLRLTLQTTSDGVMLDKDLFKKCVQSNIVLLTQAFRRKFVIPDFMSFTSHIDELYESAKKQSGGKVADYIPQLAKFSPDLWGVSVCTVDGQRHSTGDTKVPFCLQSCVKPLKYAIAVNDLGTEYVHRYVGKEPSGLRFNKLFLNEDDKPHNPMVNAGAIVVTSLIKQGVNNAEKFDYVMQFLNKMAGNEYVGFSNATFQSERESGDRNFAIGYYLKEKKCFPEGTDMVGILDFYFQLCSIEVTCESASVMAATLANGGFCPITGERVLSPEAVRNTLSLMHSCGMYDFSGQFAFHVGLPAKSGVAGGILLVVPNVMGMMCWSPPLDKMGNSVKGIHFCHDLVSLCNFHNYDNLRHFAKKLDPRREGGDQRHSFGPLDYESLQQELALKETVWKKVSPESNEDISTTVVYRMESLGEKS
The experiment is described as follows: GLS1 Enzymatic Activity Assay (dual-coupled enzymatic assay). The class given is biochemical. The essentials: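 Recombinant human GAC (2 nM) preincubated with 50 mM potassium phosphate, then inhibitor (10 min each, RT); 1 mM glutamine, pH 7.4 Hepes buffer, 1% DMSO. Glutamate coupled via glutamate oxidase/HRP to resorufin (Ex 530/Em 590), kinetic or 20-min endpoint; IC50 by four-parameter logistic fit.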

Some results are limits rather than exact numbers.

In general, EC50 refers to the concentration that produces a half-maximal response. What is called IC50 is the point on the concentration scale where inhibition reaches its midpoint. `Cn1ccc(CNC(=O)c2cn(CCCCc3cc4cc(C5CC5)[nH]c4nn3)nn2)n1` [Example 52, 1-(4-{6-cyclopropyl-7H-pyrrolo[2,3-c]pyridazin-3-yl}butyl)-N-[(1-methyl-1H-pyrazol-3-yl)methyl]-1H-1,2,3-triazole-4-carboxamide] gave a half-maximal effective concentration (EC50) in the experiment on A549 cells of 500 to 5000 nM. The half-maximal inhibitory concentration (IC50) in experiment [1] lay within 100 to 500 nM.

`N#Cc1ccc(CNC(=O)c2cn(CCCCc3cc4cc(C5CC5)[nH]c4nn3)nn2)cn1` [Example 53, N-[(6-cyanopyridin-3-yl)methyl]-1-(4-{6-cyclopropyl-7H-pyrrolo[2,3-c]pyridazin-3-yl}butyl)-1H-1,2,3-triazole-4-carboxamide] came in with an EC50 in the experiment with A549 cells of 500 to 5000 nM. In experiment [1], the IC50 fell in the range of 100 to 500 nM.

`Cn1ccnc1CNC(=O)c1cn(CCCCc2cc3cc(C4CC4)[nH]c3nn2)nn1` [Example 54, 1-(4-{6-cyclopropyl-7H-pyrrolo[2,3-c]pyridazin-3-yl}butyl)-N-[(1-methyl-1H-imidazol-2-yl)methyl]-1H-1,2,3-triazole-4-carboxamide] yielded a half-maximal effective concentration (EC50) with A549 cells greater than 5000 nM. For the same molecule, in experiment [1], the 50% inhibitory concentration (IC50) lay within 500 to 5000 nM.

`Cc1cccc(CNC(=O)c2cn(CCCCc3cc4cc(C5CC5)[nH]c4nn3)nn2)n1` [Example 55, 1-(4-{6-cyclopropyl-7H-pyrrolo[2,3-c]pyridazin-3-yl}butyl)-N-[(6-methylpyridin-2-yl)methyl]-1H-1,2,3-triazole-4-carboxamide] gave a 50% effective concentration (EC50) in the experiment on A549 cells of 500 to 5000 nM. Further, in experiment [1], the IC50 lay within 100 to 500 nM.

Regarding `Cc1ccc(CNC(=O)c2cn(CCCCc3cc4cc(C5CC5)[nH]c4nn3)nn2)nc1` [Example 56, 1-(4-{6-cyclopropyl-7H-pyrrolo[2,3-c]pyridazin-3-yl}butyl)-N-[(5-methylpyridin-2-yl)methyl]-1H-1,2,3-triazole-4-carboxamide], in the experiment on A549 cells, the EC50 was in the range of 500 to 5000 nM. Moreover, the IC50 in experiment [1] fell in the range of 100 to 500 nM.

Consider `O=C(Cc1cccc(OC(F)(F)F)c1)Nc1nnc(CCCCc2cc3cc(Cc4ccccc4)[nH]c3nn2)s1` [Example 58, N-[5-(4-{6-benzyl-7H-pyrrolo[2,3-c]pyridazin-3-yl}butyl)-1,3,4-thiadiazol-2-yl]-2-[3-(trifluoromethoxy)phenyl]acetamide], for which the EC50 with A549 cells is 100 to 500 nM. Also, in experiment [1], the half-maximal inhibitory concentration (IC50) is less than 100 nM.

As to `CC(C)(C)OC(=O)NCc1cccc(CC(=O)Nc2nnc(CCCCc3cc4cc(Cc5ccccc5)[nH]c4nn3)s2)c1` [Example 59, tert-butyl N-{[3-({[5-(4-{6-benzyl-7H-pyrrolo[2,3-c]pyridazin-3-yl}butyl)-1,3,4-thiadiazol-2-yl]carbamoyl}methyl)phenyl]methyl}carbamate], the concentration for a half-maximal effect (EC50) with A549 cells was less than 100 nM. For the same molecule, in experiment [1], the IC50 is less than 100 nM.

Turning to `O=C(Nc1nnc(CCCCc2cc3cc(Cc4ccccc4)[nH]c3nn2)s1)[C@H](O)c1ccccc1` [Example 60, (2R)-N-[5-(4-(6-benzyl-7H-pyrrolo[2,3-c]pyridazin-3-yl}butyl)-1,3,4-thiadiazol-2-yl]-2-hydroxy-2-phenylacetamide], in the experiment with A549 cells, the 50% effective concentration (EC50) was 500 to 5000 nM. In addition, in experiment [1], the concentration for half-maximal inhibition (IC50) is less than 100 nM.

In the experiment on A549 cells, `O=C(Nc1nnc(CCCCc2cc3cc(Cc4ccccc4)[nH]c3nn2)s1)OC1CCOCC1` [Example 61, oxan-4-yl N-[5-(4-{6-benzyl-7H-pyrrolo[2,3-c]pyridazin-3-yl}butyl)-1,3,4-thiadiazol-2-yl]carbamate] registered an EC50 of 500 to 5000 nM. Besides, in experiment [1], the IC50 is less than 100 nM.

`O=C(Cc1ccccc1)Nc1ccn(CCCCc2cc3cc(Cc4ccccc4)[nH]c3nn2)c(=O)n1` [Example 62, N-[1-(4-{6-benzyl-7H-pyrrolo[2,3-c]pyridazin-3-yl}butyl)-2-oxo-1,2-dihydropyrimidin-4-yl]-2-phenylacetamide] had an EC50 in the experiment on A549 cells of 500 to 5000 nM. The IC50 in experiment [1] was less than 100 nM.

`O=C(Cc1cccc(OC(F)(F)F)c1)Nc1nnc(CCCCc2cc3cc[nH]c3nn2)s1` [Example 63, N-[5-(4-{7H-pyrrolo[2,3-c]pyridazin-3-yl}butyl)-1,3,4-thiadiazol-2-yl]-2-[3-(trifluoromethoxy)phenyl]acetamide] registered an EC50 in the experiment with A549 cells of 500 to 5000 nM. Besides, the 50% inhibitory concentration (IC50) in experiment [1] lay in the range of 100 to 500 nM.

As to `CC(C)CNC(=O)c1cn(CCCCc2cc3cc(Cc4ccccc4)[nH]c3nn2)nn1` [Example 65, 1-(4-{6-benzyl-7H-pyrrolo[2,3-c]pyridazin-3-yl}butyl)-N-(2-methylpropyl)-1H-1,2,3-triazole-4-carboxamide], the half-maximal effective concentration (EC50) with A549 cells lay in the range of 100 to 500 nM. Also, the half-inhibitory concentration (IC50) in experiment [1] is 500 to 5000 nM.

On to `O=C(Nc1nnc(CCCCc2cc3cc[nH]c3nn2)s1)[C@@H](O)c1ccccc1` [Example 66, (2S)-2-hydroxy-2-phenyl-N-[5-(4-{7H-pyrrolo[2,3-c]pyridazin-3-yl}butyl)-1,3,4-thiadiazol-2-yl]acetamide], for which the EC50 in the experiment with A549 cells was 500 to 5000 nM. Besides, in experiment [1], the concentration for half-maximal inhibition (IC50) lay within 100 to 500 nM.

With `COCCNC(=O)c1nnc(CCCCc2cc3cc(Cc4ccccc4)[nH]c3nn2)s1` [Example 67, 5-(4-{6-benzyl-7H-pyrrolo[2,3-c]pyridazin-3-yl}butyl)-N-(2-methoxyethyl)-1,3,4-thiadiazole-2-carboxamide], the half-maximal effective concentration (EC50) in the experiment on A549 cells lay within 100 to 500 nM. The IC50 in experiment [1] lay in the range of 100 to 500 nM.

In turn, `O=C(NCCO)c1nnc(CCCCc2cc3cc(Cc4ccccc4)[nH]c3nn2)s1` [Example 68, 5-(4-{6-benzyl-7H-pyrrolo[2,3-c]pyridazin-3-yl}butyl)-N-(2-hydroxyethyl)-1,3,4-thiadiazole-2-carboxamide] gave a concentration giving a half-maximal response (EC50) with A549 cells of 500 to 5000 nM. Besides, in experiment [1], the IC50 fell in the range of 500 to 5000 nM.

`O=C(NCC1COC1)c1nnc(CCCCc2cc3cc(Cc4ccccc4)[nH]c3nn2)s1` [Example 69, 5-(4-{6-benzyl-7H-pyrrolo[2,3-c]pyridazin-3-yl}butyl)-N-(oxetan-3-ylmethyl)-1,3,4-thiadiazole-2-carboxamide]: the concentration for a half-maximal effect (EC50) with A549 cells fell in the range of 500 to 5000 nM. The IC50 in experiment [1] lay in the range of 100 to 500 nM.

In the experiment on A549 cells, `CNC(=O)c1nnc(CCCCc2cc3cc(Cc4ccccc4)[nH]c3nn2)s1` [Example 70, 5-(4-{6-benzyl-7H-pyrrolo[2,3-c]pyridazin-3-yl}butyl)-N-methyl-1,3,4-thiadiazole-2-carboxamide] registered a concentration for a half-maximal effect (EC50) of 100 to 500 nM. Also, the half-inhibitory concentration (IC50) in experiment [1] lay within 100 to 500 nM.

In the experiment with A549 cells, `O=C(NC1COC1)c1nnc(CCCCc2cc3cc(Cc4ccccc4)[nH]c3nn2)s1` [Example 72, 5-(4-{6-benzyl-7H-pyrrolo[2,3-c]pyridazin-3-yl}butyl)-N-(oxetan-3-yl)-1,3,4-thiadiazole-2-carboxamide] returned a half-maximal effective concentration (EC50) greater than 5000 nM. Also, in experiment [1], the concentration for half-maximal inhibition (IC50) lay within 100 to 500 nM.

Take `O=C(NCc1ccccc1)c1nnc(CCCCc2cc3cc(Cc4ccccc4)[nH]c3nn2)s1` [Example 73, N-benzyl-5-(4-{6-benzyl-7H-pyrrolo[2,3-c]pyridazin-3-yl}butyl)-1,3,4-thiadiazole-2-carboxamide]: the EC50 in the experiment with A549 cells is 500 to 5000 nM. Further, the IC50 in experiment [1] is less than 100 nM.

In the experiment on A549 cells, `O=C(NCc1ccccn1)c1nnc(CCCCc2cc3cc(Cc4ccccc4)[nH]c3nn2)s1` [Example 74, 5-(4-{6-benzyl-7H-pyrrolo[2,3-c]pyridazin-3-yl}butyl)-N-(pyridin-2-ylmethyl)-1,3,4-thiadiazole-2-carboxamide] came in with an EC50 of 100 to 500 nM. For the same molecule, the IC50 in experiment [1] is less than 100 nM.

Molecule `O=C(NCc1ccncc1)c1nnc(CCCCc2cc3cc(Cc4ccccc4)[nH]c3nn2)s1` [Example 75, 5-(4-{6-benzyl-7H-pyrrolo[2,3-c]pyridazin-3-yl}butyl)-N-(pyridin-4-ylmethyl)-1,3,4-thiadiazole-2-carboxamide] registered a 50% effective concentration (EC50) with A549 cells of 500 to 5000 nM. In addition, the IC50 in experiment [1] fell in the range of 100 to 500 nM.

As to `O=C(NCc1cccnc1)c1nnc(CCCCc2cc3cc(Cc4ccccc4)[nH]c3nn2)s1` [Example 76, 5-(4-{6-benzyl-7H-pyrrolo[2,3-c]pyridazin-3-yl}butyl)-N-(pyridin-3-ylmethyl)-1,3,4-thiadiazole-2-carboxamide], the EC50 with A549 cells lay within 100 to 500 nM. The 50% inhibitory concentration (IC50) in experiment [1] is less than 100 nM.

Molecule `O=C(NCC1CC1)c1nnc(CCCCc2cc3cc(Cc4ccccc4)[nH]c3nn2)s1` [Example 77, 5-(4-{6-benzyl-7H-pyrrolo[2,3-c]pyridazin-3-yl}butyl)-N-(cyclopropylmethyl)-1,3,4-thiadiazole-2-carboxamide] came in with an EC50 with A549 cells of 500 to 5000 nM. Moreover, the IC50 in experiment [1] was 100 to 500 nM.

Turning to `O=C(NCC1CCOCC1)c1nnc(CCCCc2cc3cc(Cc4ccccc4)[nH]c3nn2)s1` [Example 78, 5-(4-{6-benzyl-7H-pyrrolo[2,3-c]pyridazin-3-yl}butyl)-N-(oxan-4-ylmethyl)-1,3,4-thiadiazole-2-carboxamide], the EC50 with A549 cells fell in the range of 500 to 5000 nM. For the same molecule, the half-maximal inhibitory concentration (IC50) in experiment [1] is 100 to 500 nM.

For the origin of these results see patent US20160002248A1, “GLS1 INHIBITORS FOR TREATING DISEASE” (Board of Regents, The University of Texas System, priority 2014, published 2016).
